The source made the active and inactive calls.
What was measured:
[1] = inhibitors of intracellular T. cruzi replication, confirmation, NIH3T3 host cells, beta-gal luminescence (AID 2044); format: functional, cell-based;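 further: intracellular parasites grown in NIH/3T3 mouse fibroblasts as host cells; luminescent beta-galactosidase reporter signal from transgenic T. cruzi replicating inside host cells; inhibitors lower the luminescence signal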
[2] = Luminescence-based dose response cell-based high throughput screening assay for cytotoxic compounds using the IEC-6 intestinal epithelial cell line. [Related pubchem assays: 1858 (Summary AID.), 1825 (Counterscreen.), 1907 (Confirmation screen.)]; format: functional
[3] = cytotoxicity toward NIH3T3 fibroblasts, dose response, counter-screen, cell-based, ATP luminescence, mouse fibroblasts (AID 2010); format: functional;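 further: cells exposed to compound for about 90 hours before reading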
[4] = THP-1 cell cytotoxicity, dose response, cytotoxicity control for non-replicating M. tuberculosis project (AID 489025); format: functional
[5] = HepG2 cell cytotoxicity, dose response, cytotoxicity control for non-replicating M. tuberculosis project (AID 489018); format: functional; conditions: Mycobacterium tuberculosis
[6] = Vero E6 cell cytotoxicity, dose response, cytotoxicity control for non-replicating M. tuberculosis project, secondary assay (AID 492998); format: functional, VeroE6; conditions: Vero C1008
cells = format: functional
Paired box protein Pax-8 = Paired box protein Pax-8 (Homo sapiens, UniProt Q06710); test: inhibitors of PAX8-driven TPO luciferase reporter, dose response, RMG-I cells, cherry-pick (AID 687027); format: functional, cell-based;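 further: luciferase reporter driven by Pax8 target thyroperoxidase promoter measured by SteadyGlo luminescence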
Paired box protein Pax-8, sequence (Q06710 whole entry): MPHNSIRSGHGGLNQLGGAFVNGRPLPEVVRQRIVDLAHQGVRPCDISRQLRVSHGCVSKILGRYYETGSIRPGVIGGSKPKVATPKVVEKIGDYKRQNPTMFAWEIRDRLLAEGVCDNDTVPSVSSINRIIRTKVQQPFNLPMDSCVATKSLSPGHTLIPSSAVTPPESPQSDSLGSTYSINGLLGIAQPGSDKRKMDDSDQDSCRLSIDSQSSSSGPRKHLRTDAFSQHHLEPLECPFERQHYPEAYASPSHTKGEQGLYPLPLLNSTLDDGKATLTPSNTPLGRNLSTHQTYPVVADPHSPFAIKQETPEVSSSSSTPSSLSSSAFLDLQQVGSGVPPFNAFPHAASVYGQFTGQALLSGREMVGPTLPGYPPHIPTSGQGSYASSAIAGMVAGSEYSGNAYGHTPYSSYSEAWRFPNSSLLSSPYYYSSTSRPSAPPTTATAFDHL

Escherichia coli [7] = test: microbe, parasite or virus in culture
Escherichia coli [8] = test: microbe, parasite or virus in culture; remark: listed apart in the source
CAAX prenyl protease 2 [9] = target: T1, CAAX prenyl protease 2 (Saccharomyces cerevisiae S288c, UniProt Q03530); format: biochemical
T1 sequence (Q03530 whole entry): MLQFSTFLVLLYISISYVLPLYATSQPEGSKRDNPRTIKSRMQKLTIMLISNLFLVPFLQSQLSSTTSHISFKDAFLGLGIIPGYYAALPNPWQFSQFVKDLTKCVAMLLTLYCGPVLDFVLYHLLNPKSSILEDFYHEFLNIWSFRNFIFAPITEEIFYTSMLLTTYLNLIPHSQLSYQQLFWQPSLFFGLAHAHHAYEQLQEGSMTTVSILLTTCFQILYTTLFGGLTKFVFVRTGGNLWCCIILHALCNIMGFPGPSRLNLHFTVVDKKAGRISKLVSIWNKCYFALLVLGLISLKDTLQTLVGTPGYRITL

CAAX prenyl protease 2 [10] = target: CAAX prenyl protease 2 (Homo sapiens, UniProt Q9Y256); test: human Rce1 protease inhibitors, dose response, biochemical, yeast membranes, quenched-peptide fluorescence, cherry-pick (AID 588849)
CAAX prenyl protease 2 (Homo sapiens, UniProt Q9Y256), sequence (Q9Y256 whole entry): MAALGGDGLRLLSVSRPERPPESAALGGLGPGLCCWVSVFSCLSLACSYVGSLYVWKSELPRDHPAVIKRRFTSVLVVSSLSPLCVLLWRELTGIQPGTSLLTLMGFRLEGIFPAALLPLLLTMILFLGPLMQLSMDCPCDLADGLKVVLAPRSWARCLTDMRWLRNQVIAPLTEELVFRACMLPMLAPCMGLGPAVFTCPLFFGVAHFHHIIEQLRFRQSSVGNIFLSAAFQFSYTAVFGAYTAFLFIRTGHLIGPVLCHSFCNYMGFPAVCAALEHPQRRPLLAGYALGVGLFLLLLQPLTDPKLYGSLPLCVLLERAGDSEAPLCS

[11] = target: Voltage-gated inwardly rectifying potassium channel KCNH2 (Homo sapiens, UniProt Q12809); conditions: Potency;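 further: confirmatory quantitative high-throughput screen measuring inhibition of hERG channel activity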
Voltage-gated inwardly rectifying potassium channel KCNH2, sequence (Q12809 whole entry): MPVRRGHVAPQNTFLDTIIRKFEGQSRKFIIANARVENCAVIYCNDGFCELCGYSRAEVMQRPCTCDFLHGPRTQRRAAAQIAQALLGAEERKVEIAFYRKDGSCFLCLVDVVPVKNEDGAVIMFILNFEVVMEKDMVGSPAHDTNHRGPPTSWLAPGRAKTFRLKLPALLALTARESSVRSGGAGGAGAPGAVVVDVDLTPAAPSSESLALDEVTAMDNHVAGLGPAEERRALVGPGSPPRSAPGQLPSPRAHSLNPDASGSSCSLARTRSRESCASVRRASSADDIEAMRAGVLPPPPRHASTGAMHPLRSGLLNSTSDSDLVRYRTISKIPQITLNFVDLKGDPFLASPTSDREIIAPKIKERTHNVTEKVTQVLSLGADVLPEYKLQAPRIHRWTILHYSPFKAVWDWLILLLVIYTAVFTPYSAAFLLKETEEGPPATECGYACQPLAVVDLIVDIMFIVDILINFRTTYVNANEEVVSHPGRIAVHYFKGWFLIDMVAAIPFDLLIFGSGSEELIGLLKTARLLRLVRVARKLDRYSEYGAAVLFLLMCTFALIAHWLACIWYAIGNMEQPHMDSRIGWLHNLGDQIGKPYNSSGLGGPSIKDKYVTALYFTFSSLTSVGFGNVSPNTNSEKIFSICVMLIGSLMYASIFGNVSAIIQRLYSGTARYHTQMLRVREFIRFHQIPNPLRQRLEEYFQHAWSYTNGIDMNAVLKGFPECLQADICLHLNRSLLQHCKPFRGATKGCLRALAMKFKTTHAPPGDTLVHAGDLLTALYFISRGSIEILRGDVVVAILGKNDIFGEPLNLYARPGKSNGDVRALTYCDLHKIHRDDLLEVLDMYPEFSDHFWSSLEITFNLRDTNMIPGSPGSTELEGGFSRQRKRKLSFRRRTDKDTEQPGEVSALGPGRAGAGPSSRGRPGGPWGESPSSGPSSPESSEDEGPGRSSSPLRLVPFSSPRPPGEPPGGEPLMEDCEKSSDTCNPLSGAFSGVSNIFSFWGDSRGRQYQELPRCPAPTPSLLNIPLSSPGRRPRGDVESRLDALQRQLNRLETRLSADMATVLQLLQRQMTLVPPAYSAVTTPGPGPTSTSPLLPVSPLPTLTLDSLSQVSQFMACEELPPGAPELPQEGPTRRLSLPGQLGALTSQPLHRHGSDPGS

Candida albicans [12] = test: growth inhibition of resistant C. albicans, dose response, CaCi-8 strain, fluconazole, dry powder, set 4 (AID 488950); format: functional, organism-based
Candida albicans [13] = test: growth inhibition of azole-resistant C. albicans, dose response, CaCi-8 strain, Alamar Blue, dry powder, set 2 (AID 488909); format: functional, organism-based
HEK293 [14] = test: cytotoxicity in HEK293T NF-kB-Luc cells, SAR follow-up, cytotoxicity control for NF-kB activator project, cell-based, resazurin fluorescence (AID 493251); format: functional; conditions: Homo sapiens
[15] = target: UDP-galactopyranose mutase (Mycobacterium tuberculosis, UniProt P9WIQ1); test: Inhibitors of Mycobacterium tuberculosis UDP-galactopyranose mutase (UGM) enzyme Measured in Biochemical System Using Plate Reader - 2105-02_Inhibitor_Dose_CherryPick_Activity. [Related pubchem assays (depositor defined):AID504439]
UDP-galactopyranose mutase, sequence (P9WIQ1 whole entry): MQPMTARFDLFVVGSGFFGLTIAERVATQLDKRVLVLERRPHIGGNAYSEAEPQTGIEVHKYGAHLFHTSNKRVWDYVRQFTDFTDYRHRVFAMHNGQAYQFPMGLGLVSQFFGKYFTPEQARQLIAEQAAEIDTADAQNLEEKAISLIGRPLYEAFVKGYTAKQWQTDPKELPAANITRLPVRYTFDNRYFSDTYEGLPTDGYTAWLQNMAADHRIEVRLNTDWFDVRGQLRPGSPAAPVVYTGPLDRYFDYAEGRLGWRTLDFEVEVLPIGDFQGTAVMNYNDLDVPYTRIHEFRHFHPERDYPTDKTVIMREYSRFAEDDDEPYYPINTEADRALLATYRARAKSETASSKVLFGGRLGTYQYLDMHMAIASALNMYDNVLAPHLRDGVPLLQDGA

HEK293 [16] = test: cells; conditions: Homo sapiens
HEK293 [17] = test: cells; conditions: Homo sapiens; remark: listed apart in the source
BJ [18] = test: cytotoxicity toward BJ-TERT fibroblasts, dose response, cell-based, RAS-independent, luminescence (AID 1933); format: functional; conditions: Homo sapiens
BJ [19] = test: cells; format: functional, cell-based; conditions: Homo sapiens
BJ [20] = test: cytotoxicity toward BJ-TERT-LT-ST fibroblasts, dose response, cell-based, RAS-independent, luminescence (AID 1935); format: functional; conditions: Homo sapiens;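 further: BJ fibroblasts immortalized with TERT plus LT and ST oncogenes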
[21] = cytotoxicity toward DRD oncogenic fibroblasts, dose response, cell-based, non-viral oncogenic, luminescence (AID 1934); format: functional; conditions: Homo sapiens
[22] = Luminescence Cell-Based Dose Retest to Confirm Inhibitors of Cancer Stem Cells. [Related pubchem assays (depositor defined):AID2717, AID2721]; format: functional; conditions: Homo sapiens
[23] = cytotoxicity in HMLE control line with eGFP shRNA, dose response, counter-screen for HMLE_sh_ECad selective toxicity project, cell-based, HMLE_sh_eGFP, luminescence (AID 463074); format: functional, Homo sapiens;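 further: HMLE human mammary epithelial cells expressing control shRNA against eGFP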
A-375 [24] = test: MITF: Counter assay: A375 proliferation Measured in Cell-Based System Using Plate Reader - 2084-03_Inhibitor_Dose_DryPowder_Activity. [Related pubchem assays (depositor defined):AID488944]; format: functional; conditions: Homo sapiens
A-375 [25] = test: A375 melanoma cell viability reduction, dose response, counter-screen for MITF modulator project, cherry-pick samples, set 2 (AID 540335); format: functional, cell-based; conditions: Homo sapiens
[26] = inhibitors of Trypanosoma cruzi host-cell infection, confirmation, beta-gal luminescence, NIH3T3 host cells (AID 2630); format: functional, cell-based; conditions: Mus musculus
Trypsin = Trypsin (Sus scrofa, UniProt P00761); test: porcine trypsin inhibitors, dose response, selectivity assay for Rce1 protease inhibitor project, biochemical, quenched peptide fluorescence, cherry-pick (AID 488789)
Trypsin, sequence (P00761 whole entry): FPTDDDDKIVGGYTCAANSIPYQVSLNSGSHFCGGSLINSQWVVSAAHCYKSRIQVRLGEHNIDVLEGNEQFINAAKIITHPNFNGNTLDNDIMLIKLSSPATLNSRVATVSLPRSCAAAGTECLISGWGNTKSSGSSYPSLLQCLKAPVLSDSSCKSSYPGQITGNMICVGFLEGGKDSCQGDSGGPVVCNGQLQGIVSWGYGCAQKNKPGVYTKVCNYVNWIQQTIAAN

CAAX prenyl protease 1 = CAAX prenyl protease 1 (Saccharomyces cerevisiae S288c, UniProt P47154); test: Ste24 protease inhibitors, dose response, biochemical, S. cerevisiae, plate reader, cherry-pick (AID 488815)
CAAX prenyl protease 1, sequence (P47154 whole entry): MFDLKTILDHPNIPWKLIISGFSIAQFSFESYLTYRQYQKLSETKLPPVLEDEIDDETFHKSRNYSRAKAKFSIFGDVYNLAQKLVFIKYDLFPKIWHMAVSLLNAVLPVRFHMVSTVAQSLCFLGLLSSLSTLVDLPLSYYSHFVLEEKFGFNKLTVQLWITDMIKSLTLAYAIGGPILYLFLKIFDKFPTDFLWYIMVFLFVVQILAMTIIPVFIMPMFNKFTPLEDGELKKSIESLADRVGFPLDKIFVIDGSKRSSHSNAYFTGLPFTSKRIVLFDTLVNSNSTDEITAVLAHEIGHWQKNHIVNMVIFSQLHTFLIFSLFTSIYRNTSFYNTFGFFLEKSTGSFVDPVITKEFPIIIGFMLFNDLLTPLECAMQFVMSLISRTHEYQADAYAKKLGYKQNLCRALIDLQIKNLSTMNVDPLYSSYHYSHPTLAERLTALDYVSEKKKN

[27] = target: T2, Endoribonuclease toxin MazF (Escherichia coli K-12, UniProt P0AE70); test: MazF toxin RNase activators, dose response, biochemical, fluorescence, single-stranded RNA substrate, uHTS hits (AID 588481); format: functional
T2 sequence (P0AE70 whole entry): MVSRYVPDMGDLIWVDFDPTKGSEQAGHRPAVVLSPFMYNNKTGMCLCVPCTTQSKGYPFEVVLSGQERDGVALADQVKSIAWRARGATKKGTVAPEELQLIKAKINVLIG

[28] = target: T2, Endoribonuclease toxin MazF; test: fluorescent RNA oligo signal without MazF, dose response, counter-screen for MazEF activator project, biochemical, fluorescence, single-stranded RNase substrate (AID 588502); format: functional
Melanocortin receptor 4 = Melanocortin receptor 4 (Homo sapiens, UniProt P32245); format: functional, cell-based;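 further: Cell-based assay with luminescence read-out, confirmatory dose-response testing for agonist activity of biased ligands at MC4R; human U2OS cells with tagged receptor and beta-arrestin; potency of agonists that increase receptor coupling to beta-arrestin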
Melanocortin receptor 4, sequence (P32245 whole entry): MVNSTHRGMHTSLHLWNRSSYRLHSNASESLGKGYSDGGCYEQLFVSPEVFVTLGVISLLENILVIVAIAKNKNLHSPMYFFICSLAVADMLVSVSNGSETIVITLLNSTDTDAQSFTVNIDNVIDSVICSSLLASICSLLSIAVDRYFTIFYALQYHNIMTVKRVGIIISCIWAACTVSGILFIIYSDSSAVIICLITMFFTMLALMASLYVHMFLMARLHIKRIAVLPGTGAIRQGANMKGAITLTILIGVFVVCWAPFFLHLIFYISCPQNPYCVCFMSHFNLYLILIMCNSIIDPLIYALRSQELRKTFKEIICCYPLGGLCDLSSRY

[29] = target: T3, Short transient receptor potential channel 4 (Mus musculus, UniProt Q9QUQ5); test: mouse TRPC4 channel activators, dose response, cell-based, HEK293 TRPC4/mu-opioid, Fluo-4 calcium (AID 434937); format: functional
T3 sequence (Q9QUQ5 whole entry): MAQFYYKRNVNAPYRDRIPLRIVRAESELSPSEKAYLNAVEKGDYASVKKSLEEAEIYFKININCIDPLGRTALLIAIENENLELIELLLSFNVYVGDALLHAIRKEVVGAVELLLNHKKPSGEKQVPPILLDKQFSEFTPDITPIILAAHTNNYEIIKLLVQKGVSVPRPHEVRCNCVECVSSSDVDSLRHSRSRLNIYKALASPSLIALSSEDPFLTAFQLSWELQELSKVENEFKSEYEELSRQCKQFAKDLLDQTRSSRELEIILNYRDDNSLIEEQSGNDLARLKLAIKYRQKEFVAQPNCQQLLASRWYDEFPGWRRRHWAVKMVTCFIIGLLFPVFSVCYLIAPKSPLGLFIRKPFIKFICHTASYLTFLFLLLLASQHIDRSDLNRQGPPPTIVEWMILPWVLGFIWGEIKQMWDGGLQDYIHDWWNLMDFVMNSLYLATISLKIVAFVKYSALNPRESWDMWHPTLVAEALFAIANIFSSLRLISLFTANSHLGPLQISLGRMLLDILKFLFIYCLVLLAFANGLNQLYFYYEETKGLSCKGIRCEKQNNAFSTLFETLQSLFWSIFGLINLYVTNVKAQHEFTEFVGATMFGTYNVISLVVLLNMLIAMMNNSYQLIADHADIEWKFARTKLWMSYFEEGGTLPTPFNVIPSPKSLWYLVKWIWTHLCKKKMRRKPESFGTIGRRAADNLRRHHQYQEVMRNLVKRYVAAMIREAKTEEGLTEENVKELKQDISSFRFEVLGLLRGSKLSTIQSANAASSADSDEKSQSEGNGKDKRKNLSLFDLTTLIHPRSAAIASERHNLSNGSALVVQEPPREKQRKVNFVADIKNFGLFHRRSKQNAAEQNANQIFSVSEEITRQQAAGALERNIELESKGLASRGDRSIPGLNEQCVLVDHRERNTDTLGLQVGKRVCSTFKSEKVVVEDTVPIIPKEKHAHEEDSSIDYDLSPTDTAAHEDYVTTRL

[30] = target: Delta-type opioid receptor (Homo sapiens, UniProt P41143); test: Counterscreen for agonists of heterodimerization of the mu 1 (OPRM1) and delta 1 (OPRD1) opioid receptors: Luminescence-based cell-based high throughput dose response assay to identify agonists of OPRD1 homodimerization. [Related pubchem assays (depositor defined):AID504326, AID504355, AID504692, AID504904, AID504905]; format: functional
Delta-type opioid receptor, sequence (P41143 whole entry): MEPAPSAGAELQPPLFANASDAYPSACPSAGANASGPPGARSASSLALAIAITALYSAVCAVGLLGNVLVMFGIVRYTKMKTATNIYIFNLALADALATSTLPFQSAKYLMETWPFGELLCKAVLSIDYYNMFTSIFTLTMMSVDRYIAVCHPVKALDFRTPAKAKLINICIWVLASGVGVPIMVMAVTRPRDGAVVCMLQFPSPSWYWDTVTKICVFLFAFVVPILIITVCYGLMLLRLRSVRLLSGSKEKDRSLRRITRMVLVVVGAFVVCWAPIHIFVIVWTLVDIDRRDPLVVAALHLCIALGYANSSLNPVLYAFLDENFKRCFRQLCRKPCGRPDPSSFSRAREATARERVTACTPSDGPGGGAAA

Mu-type opioid receptor = Mu-type opioid receptor (Homo sapiens, UniProt P35372); test: Counterscreen for agonists of heterodimerization of the mu 1 (OPRM1) and delta 1 (OPRD1) opioid receptors: Luminescence-based cell-based high throughput dose response assay to identify agonists of OPRM1 homodimerization.; format: functional;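 further: U2OS cells expressing OPRM1 and beta-arrestin as split beta-galactosidase partners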
Mu-type opioid receptor, sequence (P35372 whole entry): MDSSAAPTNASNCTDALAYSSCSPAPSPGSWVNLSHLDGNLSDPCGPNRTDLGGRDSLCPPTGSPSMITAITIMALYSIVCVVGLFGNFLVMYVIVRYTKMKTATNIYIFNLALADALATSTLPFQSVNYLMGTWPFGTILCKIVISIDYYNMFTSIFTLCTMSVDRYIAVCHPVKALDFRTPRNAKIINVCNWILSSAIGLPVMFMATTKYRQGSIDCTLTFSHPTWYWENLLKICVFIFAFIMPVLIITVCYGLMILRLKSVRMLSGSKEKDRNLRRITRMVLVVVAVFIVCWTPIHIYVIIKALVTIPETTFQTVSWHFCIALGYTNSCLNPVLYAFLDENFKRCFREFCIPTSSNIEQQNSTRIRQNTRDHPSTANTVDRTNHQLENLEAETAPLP

[31] = target: 5-hydroxytryptamine receptor 5A (Homo sapiens, UniProt P47898); test: Counterscreen for agonists of OPRM1-OPRD1 heterodimerization: luminescence-based cell-based high throughput dose response assay to identify agonists of 5-hydroxytryptamine (serotonin) 5A receptor (HTR5A). [Related pubchem assays (depositor defined):AID504326, AID504355, AID504692, AID504904, AID504905]; format: functional
5-hydroxytryptamine receptor 5A, sequence (P47898 whole entry): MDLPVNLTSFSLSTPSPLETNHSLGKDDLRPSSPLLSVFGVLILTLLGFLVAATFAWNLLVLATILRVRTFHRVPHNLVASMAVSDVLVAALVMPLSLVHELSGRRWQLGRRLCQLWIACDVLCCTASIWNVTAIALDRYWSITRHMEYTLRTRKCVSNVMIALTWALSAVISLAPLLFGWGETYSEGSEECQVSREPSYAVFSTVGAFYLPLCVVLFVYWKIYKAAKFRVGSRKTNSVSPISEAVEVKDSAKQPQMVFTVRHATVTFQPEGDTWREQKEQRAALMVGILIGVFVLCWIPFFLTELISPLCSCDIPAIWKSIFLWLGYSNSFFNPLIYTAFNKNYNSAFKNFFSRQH

[32] = target: T4, sn-1-specific diacylglycerol lipase ABHD11 (Mus musculus, UniProt Q8K4F5); test: Late stage assay provider results from the probe development effort to identify inhibitors of LYPLA1: fluorescence-based cell-based gel-based Activity-Based Protein Profiling (ABPP) IC50 for anti-target ABHD11. [Related pubchem assays (depositor defined):AID2174, AID2177, AID2202, AID2203, AID2232, AID2233, AID493105, AID493108, AID493109, AID493110, AID493111, AID493154, AID493161, AID504892]; format: functional
T4 sequence (Q8K4F5 whole entry): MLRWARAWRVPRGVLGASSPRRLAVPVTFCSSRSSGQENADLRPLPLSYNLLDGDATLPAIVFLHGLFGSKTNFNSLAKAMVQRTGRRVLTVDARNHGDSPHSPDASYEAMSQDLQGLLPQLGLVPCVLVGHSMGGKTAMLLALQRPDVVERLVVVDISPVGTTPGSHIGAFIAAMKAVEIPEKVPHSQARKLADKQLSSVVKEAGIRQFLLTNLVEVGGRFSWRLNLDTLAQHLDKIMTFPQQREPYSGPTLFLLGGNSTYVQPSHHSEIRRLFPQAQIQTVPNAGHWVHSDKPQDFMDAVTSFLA

[33] = target: T4, sn-1-specific diacylglycerol lipase ABHD11; test: Late stage assay provider results from the probe development effort to identify inhibitors of LYPLA1 and LYPLA2: Gel-based Activity-Based Protein Profiling (ABPP) IC50 for off-target ABHD11. [Related pubchem assays (depositor defined):AID2174, AID2202, AID2203, AID2233, AID504482, AID504498, AID504505, AID504507, AID504510, AID504520, AID504522, AID504892]; format: functional

CN1CCc2c(sc(NC(=O)c3ccc([N+](=O)[O-])o3)c2C(N)=O)C1
EC50 [1]: 1.26 µM (active)
IC50 [2]: 0.879 µM (active)
EC50 [3]: 3.92 µM (active)
CC50 [4]: 1.21 µM (active)
CC50 [5]: 2.55 µM (active)
CC50 [6]: 0.54 µM (active)
IC50 (cells): 17.6 µM (active)
AC50 (Paired box protein Pax-8): 1.67 µM (active)
AC50 (Escherichia coli [7]): 23.2 µM (active)
AC50 (Escherichia coli [8]): 26.4 µM (active)

CCc1cc(=O)oc2cc(OCC(=O)N3CCC(C(=O)O)CC3)ccc12
AC50 (CAAX prenyl protease 2 [9]): 31.9 µM (active)
AC50 (CAAX prenyl protease 2 [10]): 14.3 µM (active)

C(=C/c1ccccc1)/c1ccccc1
AC50 [11]: 22.4 µM (inconclusive)

O=C(c1ccc(Cl)cc1)N1CCCN(c2ccnc3cc(Cl)ccc23)CC1
AC50 (Candida albicans [12]): 12.7 µM (active)
AC50 (Candida albicans [13]): < 0.195 µM (active)

Cc1oc(-c2ccccc2)nc1CSCC(=O)NCc1ccco1
IC50 (HEK293 [14]): > 80 µM (inactive)

O=C(COC(=O)c1ccc([N+](=O)[O-])o1)NC1CCCC1
AC50 [15]: > 500 µM (inactive)

Cc1cc(C)nc(SC2c3cccc4cccc(c34)C2NS(=O)(=O)c2ccccc2)n1 (centres undefined)
EC50 [1]: 1.87 µM (active)
EC50 [3]: 12.8 µM (active)
EC50 (HEK293 [16]): > 59.6 µM (inactive)
EC50 (HEK293 [17]): > 59.6 µM (inactive)

CN1CCN(c2ccc(C(=O)c3ccccc3)cc2[N+](=O)[O-])CC1
EC50 (BJ [18]): > 150 µM (not active)
EC50 (BJ [19]): > 150 µM (not active)
EC50 [1]: 0.399 µM (active)
EC50 [3]: > 60 µM (not active)
EC50 (BJ [20]): > 150 µM (inconclusive)
EC50 [21]: > 150 µM (not active)
AC50 [22]: 2.09 µM (active)
AC50 [23]: 77.6 µM (active)

Cc1csc(NC(=O)Cc2c(F)cccc2Cl)n1
AC50 (A-375 [24]): > 35 µM (active)
AC50 (A-375 [25]): > 35 µM (active)

Cc1ccc(NC(=O)CCC(=O)N/N=C/c2ccc(C)o2)c(C)c1
EC50 [26]: 195 µM (inactive)

Cc1nc(NC(=O)c2cccc(-c3cc4ccccc4oc3=O)c2)ccc1Br
AC50 (Trypsin): 16.6 µM (active)
AC50 (CAAX prenyl protease 2 [9]): > 100 µM (inactive)
AC50 (CAAX prenyl protease 1): 11.9 µM (active)
EC50 [27]: > 99 µM (inactive)
EC50 [28]: > 99 µM (inactive)
EC50 (Melanocortin receptor 4): > 89.2 µM (inactive)

Cc1ccc(Cl)cc1NC(=O)CNCC(c1ccccc1)N(C)C (centres undefined)
EC50 [29]: 0.376 µM (active)
EC50 [30]: > 92.5 µM (inactive)
EC50 (Mu-type opioid receptor): > 92.5 µM (inactive)
EC50 [31]: > 92.5 µM (inactive)

CCC1CCCCN1C(=O)n1ncc(C(O)(c2ccccc2)c2ccccc2)n1 (centres undefined)
IC50 [32]: 0.000678 µM (active)
IC50 [33]: 0.015 µM (active)
